The test deals with ATP-dependent translocase ABCB1 (Homo sapiens, UniProt P08183). In words: TP_TRANSPORTER: inhibition of Verapamil binding in membranes from Vinblastine-induced Caco-2 cells. The format is functional, cell membranes, Membrane.

Molecules are shown by their SMILES.

ATP-dependent translocase ABCB1, sequence (P08183 whole entry): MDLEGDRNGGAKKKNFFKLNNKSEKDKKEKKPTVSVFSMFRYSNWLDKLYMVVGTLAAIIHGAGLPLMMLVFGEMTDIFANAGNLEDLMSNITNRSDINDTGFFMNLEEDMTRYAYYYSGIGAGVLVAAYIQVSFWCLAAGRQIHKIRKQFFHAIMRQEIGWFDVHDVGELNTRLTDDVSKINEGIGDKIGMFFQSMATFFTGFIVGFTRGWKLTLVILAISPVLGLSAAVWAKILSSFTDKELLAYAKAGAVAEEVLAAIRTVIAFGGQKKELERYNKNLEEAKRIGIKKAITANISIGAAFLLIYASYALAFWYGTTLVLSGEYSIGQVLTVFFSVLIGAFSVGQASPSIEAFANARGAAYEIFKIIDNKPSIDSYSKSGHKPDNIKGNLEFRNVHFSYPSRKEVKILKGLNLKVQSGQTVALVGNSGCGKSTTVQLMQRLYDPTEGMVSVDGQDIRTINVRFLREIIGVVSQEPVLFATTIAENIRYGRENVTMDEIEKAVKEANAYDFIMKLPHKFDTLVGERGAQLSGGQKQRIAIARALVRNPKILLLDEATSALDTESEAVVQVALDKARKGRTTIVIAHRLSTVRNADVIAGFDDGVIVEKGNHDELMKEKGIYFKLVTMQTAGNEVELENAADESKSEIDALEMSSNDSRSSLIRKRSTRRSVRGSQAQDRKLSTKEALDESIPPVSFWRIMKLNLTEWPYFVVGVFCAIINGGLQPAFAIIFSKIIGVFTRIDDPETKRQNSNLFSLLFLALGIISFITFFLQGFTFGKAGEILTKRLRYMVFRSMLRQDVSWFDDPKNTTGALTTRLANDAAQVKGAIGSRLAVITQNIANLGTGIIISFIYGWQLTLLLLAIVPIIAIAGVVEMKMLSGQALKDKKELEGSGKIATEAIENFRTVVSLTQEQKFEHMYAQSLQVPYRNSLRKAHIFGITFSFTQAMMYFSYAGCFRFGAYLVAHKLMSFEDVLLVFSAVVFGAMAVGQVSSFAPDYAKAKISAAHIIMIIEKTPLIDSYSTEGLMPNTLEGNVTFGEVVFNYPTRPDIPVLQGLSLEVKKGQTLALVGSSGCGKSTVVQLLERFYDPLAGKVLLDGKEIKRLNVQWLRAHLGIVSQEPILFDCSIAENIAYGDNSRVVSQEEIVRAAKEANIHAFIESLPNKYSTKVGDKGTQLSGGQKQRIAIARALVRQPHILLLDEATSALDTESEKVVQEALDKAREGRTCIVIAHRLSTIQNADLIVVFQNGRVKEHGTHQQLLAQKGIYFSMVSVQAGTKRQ

As to `COC(=O)c1ccccc1-c1c2ccc(=N)cc-2oc2cc(N)ccc12` [RHODAMINE123], the Ki (read-out: Ki1) was 110 nM and the Ki (read-out: Ki2) turned out to be 3400 nM.
For the compound `CC[C@]1(O)C[C@H]2CN(CCc3c([nH]c4ccccc34)[C@@](C(=O)OC)(c3cc4c(cc3OC)N(C=O)[C@H]3[C@@](O)(C(=O)OC)[C@H](OC(C)=O)[C@]5(CC)C=CCN6CC[C@]43[C@@H]65)C2)C1` [VINCRISTINE], the Ki was found to be 470 nM (read-out: Ki1) and 148000 nM (read-out: Ki2).

Source of the values: ChEMBL document CHEMBL2074241, “Characterization of binding properties to human P-glycoprotein: development of a [3H]verapamil radioligand-binding assay” (J Pharmacol Exp Ther, 1999).
